Read-outs that look alike come from different tables or passages of the source.
Assays:
[1] = test system: Key Broadleaf Weed and Crop Species; assay: Post-emergent Test II herbicidal activity (Table 5); assay type: in vivo; conditions: post-emergence, 336 h, 14 days after application; for pest or weed control at 70 g/ha: application rate 70 g ai/ha; for pest or weed control at 140 g/ha: application rate 140 g ai/ha
In short: (§1)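 Foliar application at 187 L/ha to greenhouse-grown seedlings (first or second true leaf); subirrigation thereafter. Visual 0–100% injury at 14 d relative to untreated plants.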

[2] = test system: Key Grass and Sedge Weeds as well as Grass Crops; assay: Post-emergent Test II herbicidal activity (Table 6); assay type: in vivo; conditions: post-emergence, 336 h; for pest or weed control at 70 g/ha: 70 g ai/ha; for pest or weed control at 140 g/ha: 140 g ai/ha
In short: as §1

[3] = ABUTH: velvetleaf (Abutilon theophrasti), read-out: Visual Growth Reduction (%) 14 Days After Application, ABUTH
[4] = AMARE: redroot pigweed (Amaranthus retroflexus), read-out: Visual Growth Reduction (%) 14 Days After Application, AMARE
[5] = BRSNN: oilseed-rape, canola (Brassica napus), read-out: Visual Growth Reduction (%) 14 Days After Application, BRSNN
[6] = CHEAL: lambsquarters (Chenopodium album), read-out: Visual Growth Reduction (%) 14 Days After Application, CHEAL
[7] = EPHHL: wild poinsettia (Euphorbia heterophylla), read-out: Visual Growth Reduction (%) 14 Days After Application, EPHHL
[8] = HELAN: sunflower (Helianthus annuus), read-out: Visual Growth Reduction (%) 14 Days After Application, HELAN
[9] = VIOTR: wild pansy (Viola tricolor), read-out: Visual Growth Reduction (%) 14 Days After Application, VIOTR
[10] = CYPES: yellow nutsedge (Cyperus esculentus), read-out: Visual Growth Reduction (%) 14 Days After Application, CYPES
[11] = DIGSA: crabgrass (Digitaria sanguinalis), read-out: Visual Growth Reduction (%) 14 Days After Application, DIGSA
[12] = ECHCG: barnyardgrass (Echinochloa crus-galli), read-out: Visual Growth Reduction (%) 14 Days After Application, ECHCG
[13] = ORYSA: rice (Oryza sativa), crop, read-out: Visual Growth Reduction (%) 14 Days After Application, ORYSA
[14] = SETFA: giant foxtail (Setaria faberi), read-out: Visual Growth Reduction (%) 14 Days After Application, SETFA
[15] = SORVU: grain sorghum (Sorghum vulgare), read-out: Visual Growth Reduction (%) 14 Days After Application, SORVU
[16] = TRZSS (wheat, Triticum aestivum), crop, read-out: Visual Growth Reduction (%) 14 Days After Application, TRZSS
[17] = ZEAMX: maize, corn (Zea mays), crop, read-out: Visual Growth Reduction (%) 14 Days After Application, ZEAMX

Compound: COC(=O)c1nc(-c2ccc(F)cc2)c(F)c(N)c1Cl [Compound 204]
- pest or weed control at 70 g/ha [1, 3]: 95 to 100%
- pest or weed control at 140 g/ha [1, 3]: 95 to 100%
- pest or weed control at 70 g/ha [1, 4]: 95 to 100%
- pest or weed control at 140 g/ha [1, 4]: 95 to 100%
- pest or weed control at 70 g/ha [1, 5]: 85 to 94%
- pest or weed control at 140 g/ha [1, 5]: 95 to 100%
- pest or weed control at 70 g/ha [1, 6]: 95 to 100%
- pest or weed control at 140 g/ha [1, 6]: 95 to 100%
- pest or weed control at 70 g/ha [1, 7]: 95 to 100%
- pest or weed control at 140 g/ha [1, 7]: 95 to 100%
- pest or weed control at 70 g/ha [1, 8]: 95 to 100%
- pest or weed control at 140 g/ha [1, 8]: 95 to 100%
- pest or weed control at 70 g/ha [1, 9]: 75 to 84%
- pest or weed control at 140 g/ha [1, 9]: 95 to 100%
- pest or weed control at 70 g/ha [2, 10]: 85 to 94%
- pest or weed control at 140 g/ha [2, 10]: 85 to 94%
- pest or weed control at 70 g/ha [2, 11]: 60 to 74%
- pest or weed control at 140 g/ha [2, 11]: 60 to 74%
- pest or weed control at 70 g/ha [2, 12]: 95 to 100%
- pest or weed control at 140 g/ha [2, 12]: 95 to 100%
- pest or weed control at 70 g/ha [2, 13]: 0 to 29%
- pest or weed control at 140 g/ha [2, 13]: 0 to 29%
- pest or weed control at 70 g/ha [2, 14]: 0 to 29%
- pest or weed control at 140 g/ha [2, 14]: 45 to 59%
- pest or weed control at 70 g/ha [2, 15]: 75 to 84%
- pest or weed control at 140 g/ha [2, 15]: 85 to 94%
- pest or weed control at 70 g/ha [2, 16]: 45 to 59%
- pest or weed control at 140 g/ha [2, 16]: 60 to 74%
- pest or weed control at 70 g/ha [2, 17]: 75 to 84%
- pest or weed control at 140 g/ha [2, 17]: 75 to 84%
- melting point: 131 °C

Reference: patent US9113629B2, “4-amino-6-(4-substituted-phenyl)-picolinates and 6-amino-2-(4-substituted-phenyl)-pyrimidine-4-carboxylates and their use as herbicides” (DOW AGROSCIENCES LLC, priority 2013, dated 2015)
